Measurements: US8637511B2, “Aminopyrimidines useful as kinase inhibitors” (Vertex Pharmaceuticals Incorporated, priority 2005, dated 2014)

Legend:
[1] = target: T1, FLT-3 (Homo sapiens, UniProt P36888); test: FLT-3 inhibition assay, radiometric filter-binding; format: biochemical
T1 sequence (P36888 27-993): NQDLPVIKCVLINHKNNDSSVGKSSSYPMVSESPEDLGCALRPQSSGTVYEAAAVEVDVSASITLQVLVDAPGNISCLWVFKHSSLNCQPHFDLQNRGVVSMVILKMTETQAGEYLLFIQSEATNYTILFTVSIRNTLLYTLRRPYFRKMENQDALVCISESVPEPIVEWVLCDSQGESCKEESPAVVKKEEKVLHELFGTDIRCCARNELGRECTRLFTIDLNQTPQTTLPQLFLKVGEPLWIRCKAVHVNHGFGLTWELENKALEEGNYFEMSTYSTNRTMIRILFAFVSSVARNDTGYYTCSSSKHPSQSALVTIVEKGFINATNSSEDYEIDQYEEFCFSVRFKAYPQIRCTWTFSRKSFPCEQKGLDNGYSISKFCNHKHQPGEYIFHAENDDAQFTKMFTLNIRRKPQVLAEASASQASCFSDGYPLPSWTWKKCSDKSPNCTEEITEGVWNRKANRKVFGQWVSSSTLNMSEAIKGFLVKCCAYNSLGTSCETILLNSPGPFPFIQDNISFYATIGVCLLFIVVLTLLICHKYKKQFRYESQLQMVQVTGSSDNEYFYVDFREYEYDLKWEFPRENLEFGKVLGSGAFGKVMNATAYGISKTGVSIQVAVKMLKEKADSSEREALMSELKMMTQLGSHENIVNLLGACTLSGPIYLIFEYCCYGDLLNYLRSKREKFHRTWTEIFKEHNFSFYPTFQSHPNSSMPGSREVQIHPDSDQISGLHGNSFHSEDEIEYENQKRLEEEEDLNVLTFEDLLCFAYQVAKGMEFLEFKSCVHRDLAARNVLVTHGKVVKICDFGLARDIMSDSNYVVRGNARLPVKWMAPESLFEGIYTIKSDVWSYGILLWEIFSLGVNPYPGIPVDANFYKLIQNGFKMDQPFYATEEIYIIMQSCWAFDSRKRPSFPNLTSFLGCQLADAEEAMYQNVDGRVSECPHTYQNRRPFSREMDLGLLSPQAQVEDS
Experimental: This assay monitors the 33P incorporation into a substrate poly(Glu, Tyr) 4:1 (pE4Y). […] Final substrate concentrations in the assay were 90 μM ATP and 0.5 mg/ml pE4Y (both from Sigma Chemicals, St. Louis, Mo.). […] Reactions were carried out at room temperature.
Two assay solutions were prepared. Solution 1 contains 100 mM HEPES (pH 7.5), 10 mM MgCl2, 25 mM NaCl, 1 mg/ml pE4Y and […] (containing 0.3 mCi of [γ-33^P]ATP for each reaction). Solution 2 contains 100 mM HEPES (pH 7.5), 10 mM MgCl2, 25 mM NaCl, 2 mM DTT, 0.02% BSA and 3 nM FLT-3. The assay was run on a 96 well plate by mixing 50 μl each of Solution 1 and […] of the compounds of the present invention. The reaction was initiated with Solution 2. […] All of the reaction volume was then transferred to a filter plate and washed with 5% TCA by a Harvester 9600 from TOMTEC (Hamden, Conn.). The amount of ^33P incorporation into pE4y was analyzed by a Packard Top Count Microplate Scintillation Counter (Meriden, Conn.). The data was fitted using Prism software to get an IC50 or Ki.

[2] = target: T2, human Itk kinase (Homo sapiens, UniProt Q08881); test: Itk inhibition assay: radioactivity-based assay; format: biochemical; details: Ki(app)
T2 sequence (Q08881 1-620): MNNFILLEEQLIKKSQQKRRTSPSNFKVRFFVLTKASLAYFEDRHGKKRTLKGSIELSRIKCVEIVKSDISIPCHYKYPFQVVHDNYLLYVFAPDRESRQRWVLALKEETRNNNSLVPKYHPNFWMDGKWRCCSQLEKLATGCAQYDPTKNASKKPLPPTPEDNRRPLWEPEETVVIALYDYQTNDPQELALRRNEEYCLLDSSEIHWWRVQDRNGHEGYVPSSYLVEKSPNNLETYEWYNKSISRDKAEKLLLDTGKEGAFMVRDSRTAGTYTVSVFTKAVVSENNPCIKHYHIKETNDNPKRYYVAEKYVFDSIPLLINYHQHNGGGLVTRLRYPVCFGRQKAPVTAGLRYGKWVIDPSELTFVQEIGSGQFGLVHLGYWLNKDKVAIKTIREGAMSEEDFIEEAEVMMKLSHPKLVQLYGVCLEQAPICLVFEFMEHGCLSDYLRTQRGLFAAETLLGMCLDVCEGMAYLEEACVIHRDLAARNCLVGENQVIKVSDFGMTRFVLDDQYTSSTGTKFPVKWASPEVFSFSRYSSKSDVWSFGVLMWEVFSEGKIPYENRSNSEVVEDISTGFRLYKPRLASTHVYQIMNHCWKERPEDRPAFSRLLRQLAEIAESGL
Experimental: The compounds of the present invention were evaluated as inhibitors of human Itk kinase using a radioactivity-based assay. These compounds can also be evaluated using a spectrophotometric or alphascreen assay.
Assays were carried out in a mixture of 20 mM MOPS (pH 7.0), 10 mM MgCl2, 0.1% BSA and 1 mM DTT. Final substrate concentrations in the assay were 7.5 μM [γ-^33P]ATP (400 μCi ^33P ATP/μmol ATP, Amersham Pharmacia Biotech/Sigma Chemicals) and 3 μM peptide (SAM68 protein Δ332-443). Assays were carried out at 25° C. in the presence of 50 nM Itk. An assay stock buffer solution was prepared containing all of the reagents listed above, with the exception of ATP and the test compound of interest. 50 μL of the stock solution was placed in a 96 well plate followed by addition of 2 μL of DMSO stock containing serial dilutions of the test compound (typically starting from a final concentration of 50 μM with 2-fold serial dilutions) in duplicate (final DMSO concentration 2%). The plate was pre-incubated for 10 minutes at 25° C. and the reaction initiated by addition of 50 μL [γ-^33P]ATP (final concentration 7.5 μM).
The reaction was stopped after 10 minutes by the addition of 100 μL 0.2M phosphoric acid+0.01% TWEEN 20. A multiscreen phosphocellulose filter 96-well plate (Millipore, Cat no. MAPHNOB50) was pretreated with 100 μL 0.2M phosphoric acid+0.01% TWEEN 20 prior to the addition of 170 μL of the stopped assay mixture. The plate was washed with 4×200 μL 0.2M phosphoric acid+0.01% TWEEN 20. After drying, 30 μL Optiphase ‘SuperMix’ liquid scintillation cocktail (Perkin Elmer) was added to the well prior to scintillation counting (1450 Microbeta Liquid Scintillation Counter, Wallac).
Ki(app) data were calculated from non-linear regression analysis of the initial rate data using the Prism software package (GraphPad Prism version 3.0cx for Macintosh, GraphPad Software, San Diego Calif., USA).

[3] = test system: Colo205 cells; test: Analysis of cell proliferation and viability; format: cell-based; details: Homo sapiens, COLO 205; Colo205 cells, incubated for 96 hours; read-out: IC50 value

Structure (SMILES): CCc1cc(Nc2cc(N3CCC3)nc(Sc3ccc(NC(=O)c4ccccc4Cl)cc3)n2)n[nH]1 [Compound 64]
- Ki [1]: 50 to 150 nM
- Ki [2]: ≤ 100 nM
- IC50 [3]: 50 to 1000 nM
